Data published in patent US6939859B1, “Skin preparations for external use” (CCI Corp., priority 1999, dated 2005).

Assays:
interleukin-1α (IL-1α) [1] = assay: Effect of curing UVB disorder (IL-1α production, sample added after irradiation); assay type: cell-based; settings: cornified cells of normal human neonate foreskin; 0.1 mM sample added after UVB 30 mJ/cm^2; 6 h culture; ELISA; means ± S.E.
Procedure: Cornified cells of normal human neonate foreskin scurfskin (freeze-preserved product, made by Kurabo K.K.) were adjusted to a cell density of 1.0×10^5 pieces/ml in a HuMedia-KG2 culture medium (made by Kurabo K.K.), sown in a unit volume of 2 ml in the component wells of a 6-hole plate, and cultured in an atmosphere of 5% CO2 at 37° C. for 24 hours. After completion of the culture, the culture medium was removed and the wells were each washed twice with 2 ml of Hanks buffer. The Hanks buffer alone was added in a unit volume of 1 ml to the wells. They were irradiated with a UVB (312nm) emitted from an ultraviolet lamp (made by Cosmo Bio K.K.) at a dosage of 30 mJ/cm”. The amount of the energy so emitted was measured by the use of an ultraviolet light intensity meter (made by Topcon K.K. and sold under the trademark designation of “UVR-2”) . . . . Some of these wells to which the Hanks buffer alone was added in a unit amount of 1 ml formed a control group and the remainders of them to which the Hanks buffer containing 0.1 mM of a given sample was added in a unit amount of 1 ml formed a sample-added group. The groups each consisted of 8 samples. The contents of the wells were cultured in an atmosphere of 5% CO2 at 37° C. for 6 hours.
(§1) The supernatant occurring at the end of 6 hours' culture was recovered and centrifuged at 1000 rpm for 5 minutes. The concentration of the IL-1α in the resultant supernatant was determined by the use of an ELISA kit made by ENDOGENE Corp. The significance was verified by the t-test and was applied to the groups yet to be treated.

interleukin-1α (IL-1α) [2] = assay: Effect of preventing UVB-induced cytokine (IL-1α production, sample present during irradiation); assay type: cell-based; settings: cornified cells of normal human neonate foreskin; 0.1 mM sample during UVB 30 mJ/cm^2; 6 h culture; ELISA; means ± S.E.
Procedure: Cornified cells of normal human neonate foreskin scurfskin (freeze-preserved product, made by Kurabo K.K.) were adjusted to a cell density of 1.0×10^5 pieces/ml in a HuMedia-KG2 culture medium (made by Kurabo K.K.), sown in a unit volume of 2 ml in the component wells of a 6-hole plate, and cultured in an atmosphere of 5% CO2 at 37° C. for 24 hours. After completion of the culture, the culture medium was removed and the wells were each washed twice with 2 ml of Hanks buffer. Some of these wells to which the Hanks buffer alone was added in a unit amount of 1 ml formed a control group and the remainders of them to which the Hanks buffer containing 0.1 mM of a given sample was added in a unit amount of 1 ml formed a sample-added group. The groups each consisted of 8 samples. They were irradiated with a UVB (312 nm) emitted from an ultraviolet lamp (made by Cosmo Bio K.K.) at a dosage of 30 mJ/cm^2. The amount of the energy so emitted was measured by the use of an ultraviolet light intensity meter (made by Topcon K.K. and sold under the trademark designation of “UVR-2).
Immediately after completion of the irradiation, the wells were each washed twice with 2 m of Hanks buffer. With a HuMedia-KG2 culture medium added in a unit volume of 1 ml to the wells, the contents of the wells were cultured in an atmosphere of 5% CO2 at 37° C. for 6 hours.
as §1

NB1RGB = assay: Test for confirming effect of promoting growth of cells, NB1RGB; assay type: cell-based, human; settings: 100 μM chromanol glycoside, 72 h, neutral red, control = 100%
Procedure: (§2) V79 or NB1RGB was adjusted with a culture medium till the cell density reached 5×10^4 pieces/ml. Then, it was sown in a unit volume of 100 μl in the component wells of a 96-hole plate and cultured in an atmosphere of 5% CO2 at 37° C. for 72 hours. The culture medium used herein was the ordinary culture medium. Some of the wells effecting culture in the ordinary culture medium containing 100 μM of chromanol glycoside formed a chromanol glycoside-added group and the remainders of the wells effecting culture in the ordinary culture medium formed a control group. The groups each consisted of 80 samples. After the elapse of 72 hours from thence, a neutral red reagent (0.015%) was added in a unit volume of 100 μl to the wells and the resultant contents of the wells were cultured for 3 hours. After the 3 hours' culture, the culture medium was removed and a fixing solution (aqueous solution containing 0.5% of formaldehyde and 0.1% of calcium chloride) was added in a unit volume of 200 μl to the wells. The resultant contents of the wells were left fixing for one minute and then the fixing solution was removed. Subsequently, an extraction solution (aqueous solution containing 50% of ethanol and 1% of acetic acid) was added in a unit volume of 100 μl to the wells. The resultant contents of the wells were left standing for 20 minutes and measured for absorbency at 490 nm by the use of a micro-plate reader so as to allow computation of the number of cells. On the basis of the results of the measurement, the relative breeding ratios of the samples were determined, with the number of cells in the control groups taken as 100%.

[3] = test system: fibroblasts originating in the lungs of Chinese hamster (V79); assay: Test for confirming effect of preventing ultraviolet light (UVB) disorder, V79 cells; assay type: cell-based; settings: 1 mM chromanol glycoside, UVB 312 nm 60 mJ/cm^2, 72 h culture, neutral red, non-irradiated = 100%
Procedure: (§3) The fibroblasts originating in the lungs of Chinese hamster (V79) or the diploid fibroblasts originating in the skin-of a normal person (NB1RGB) were adjusted in a culture medium till the cell density reached 5.0×10^4 pieces/ml, sown at a rate of 100 μl in each of the wells on a 96-hole plate, and cultured in an atmosphere of 5% CO2 kept at 37° C. for 24 hours. As the culture medium, an E-MEM medium containing 10% bovine fetus serum (made by Nissui K.K.) For V79 or an α-MEM medium (made by SIGMA) for NB1RGB (hereinafter each referred to as “ordinary culture medium”).
(§4) After 24 hours' culture, the culture medium was removed and the individual wells were each washed twice with 200 μl of Hanks equilibrium salt buffer (Hanksbuffer). Some of these wells to which the Hanks buffer alone was added in a unit amount of 100 μl formed a control group and the remainders of them to which the Hanks buffer having a given chromanol glycoside dissolved till a final concentration of 1 mM was added in a unit amount of 100 μl formed a chromanol glycoside-added group. The groups each consisted of 46 samples. They were irradiated with a UVB (312 nm) emitted from an ultraviolet lamp (made by Cosmo Bio K.K.) at a dosage of 60 mJ/cm^2. The amount of the energy so emitted was measured by the use of an ultraviolet light intensity meter (made by Topcon K.K. and sold under the product code of “UVR-2”).
(§5) Immediately after completion of the irradiation, the wells were each washed twice with 200 μl. With the ordinary culture medium added in a unit volume of 100 μl to the wells, the contents of the wells were cultured for 72 hours. After the elapse of 72 hours from thence, the neutral red reagent (0.015%) was added in a unit volume of 100 μl to the wells and the resultant contents of the wells were cultured for 3 hours. After the elapse of 3 hours from thence, the culture medium was removed and a fixing solution (aqueous solution containing 0.5% of formaldehyde and 0.1% of calcium chloride) was added in a unit volume of 200 μl to the wells. The resultant contents of the wells were fixed for one minute and the fixing solution was removed from the wells. Then, an extracting solution (aqueous solution containing 50% of ethanol and 1% of acetic acid) were added in a unit volume of 100 μl to the wells. The resultant contents of the wells were left standing for 20 minutes and assayed with a micro-plate reader for the absorbency at 490 nm and visually examined to count the number of live cells. On the basis of the results of the assay, the relative survival ratios of the samples were determined, with the number of cells in the groups of wells not irradiated with the ultraviolet light taken as 100%.

[4] = test system: diploid fibroblasts originating in the skin of a normal person (NB1RGB); assay: Test for confirming effect of preventing ultraviolet light (UVB) disorder, NB1RGB cells; assay type: cell-based, human; settings: 1 mM chromanol glycoside, UVB 312 nm 60 mJ/cm^2, 72 h culture, neutral red, non-irradiated = 100%
Procedure: as §3, §4, §5

V79 = assay: Test for confirming effect of promoting growth of cells, V79; assay type: cell-based, Chinese hamster; settings: 100 μM chromanol glycoside, 72 h, neutral red, control = 100%
Procedure: as §2

[5] = test system: pigment-sedimented skin of colored guinea pigs; assay: Improving effect relative to deposition of ultraviolet light-induced pigment; assay type: in vivo, guinea pig; settings: 5% TMG solution in 50% ethanol, applied twice daily for three weeks, 5.6 μl/cm^2; brightness of skin (L value)
Procedure: Pigment-sedimented models wee produced from Al-1 type colored guinea pigs (female, 7-week old) divided into groups of 6 heads by shaving their backs and performing the irradiation of the skins of the backs with the ultraviolet light (light source: xenon lamp, dose: 2 MED×1 minute) once daily up to a total of three repetitions three to four days apart. After the models had been left standing for 10 days from thence, the specific portions of the pigment-sedimented parts were measured for the brightness of skin (L value) by the use of a calorimeter (former value). To the pigment-sedimented parts, a 5% TMG solution adjusted by using a 50% ethanol solution as a solvent was applied twice daily continuously for three weeks (amount applied:5.6 μl/cm^2). The guinea pigs which had undergone this application formed a TMG-applied group. The guinea pigs which had undergone application of a 50% ethanol solution in the place of the 5% TMG solution formed a control group. After three weeks from the start of the application, the skins of their backs were measured for the brightness with a calorimeter (latter value) to find the ΔL value(former value−lattervalue).

ICR type mice = assay: Test for acute toxicity; assay type: in vivo; settings: oral, 500 mg/kg as TMG in 5% gum arabic, observation for one week
Procedure: The dermatological agent for external use of this invention was tested for acute toxicity so as to establish the safety thereof. ICR type mice4-5 weeks old were divided into groups each of three heads. The same TMG as mentioned above was suspended as a chromanol glycoside in a 5% gum arabic solution. The suspension was orally administered to the mice at a unit dosage of 500 mg/kg as reduced to TMG and the mice were kept under observation for one week. To the mice in the control group, a 5% gum arabic solution was orally administered in a unit volume of 0.3 ml. No fatality was found in any of the mice in the administration group.

Row | SMILES | Amount of IL-1α produced, Effect of curing (interleukin-1α (IL-1α) [1]) [µg/mL] | Amount of IL-1α produced, Effect of prevention (interleukin-1α (IL-1α) [2]) [µg/mL] | Breeding ratio (%) (NB1RGB) | Survival ratio (%) [3] [%] | Survival ratio (%) [4] [%] | Breeding ratio (%) (V79) | ΔL value [5] | Fatality (acute toxicity) (ICR type mice)
1 | N[C@@H](CCC(=O)N[C@@H](CS)C(=O)NCC(=O)O)C(=O)O [Glutathione] | 36.5 ± 1.6 | 7.2 ± 3.4 | – | – | – | – | – | –
2 | Cc1c(C)c2c(c(C)c1O)CCC(C)(C[C@]1(CO)O[C@H](CO)[C@@H](O)[C@@H]1O)O2 (stereo partly drawn) [TMFR, 2-(β-D-Fructofuranosyl)methyl-2,5,7,8-tetramethyl chroman-6-ol] | – | – | 115 | 89 ± 9 | 81 ± 12 | 126 | – | –
3 | Cc1c(C)c2c(c(C)c1O)CCC(C)(C[C@H]1O[C@H](CO)[C@@H](O)[C@H](O)[C@@H]1O)O2 (stereo partly drawn) [TMMA, 2-(α-D-Mannopyranosyl)methyl-2,5,7,8-tetramethyl chroman-6-ol] | – | – | 121 | 96 ± 9 | 79 ± 8.7 | 124 | – | –
4 | Cc1c(C)c2c(c(C)c1O)CCC(C)(C[C@@H]1O[C@H](CO)[C@H](O)[C@H](O)[C@H]1O)O2 (stereo partly drawn) [TMGA, 2-(β-D-Galactopyranosyl)methyl-2,5,7,8-tetramethyl chroman-6-ol] | – | – | 121 | 83 ± 7 | 83 ± 14 | 115 | – | –
5 | Cc1c(C)c2c(c(C)c1O)CCC(C)(C[C@H]1O[C@H](CO)[C@@H](O)[C@H](O)[C@H]1O)O2 (stereo partly drawn) [TMG, 2-(α-D-Glucopyranosyl)methyl-2,5,7,8-tetramethyl chroman-6-ol] | 18.5 ± 4.2 | 14.5 ± 3.5 | 118 | 75 ± 8 | 78 ± 16 | 112 | 2.00 | No fatality
6 | O=C1O[C@H]([C@@H](O)CO)C(O)=C1O [Ascorbic acid] | 31.7 ± 5.0 | 16.5 ± 2.8 | – | – | – | – | – | –
